# Where “and” joins values, the source holds several entries; their conditions need not be identical. Equal entries are not always repeated. Where two headings read alike, the source gives them in different places. No end group written: not given here.
# What was measured:
# HLA-B*1801 = HLA-B*1801 (Homo sapiens, UniProt P01889, A329T/A93T/A95T/C349S/D201E/D54G/D98Y/E176V/E187T/E204Q/E69T/K202T/Q94N/R155S/R180L/S121R/V306I/Y140S/Y195H/Y33H/Y91S); assay: biochemical; type: binding
# HLA-B*4002 = HLA-B*4002 (Homo sapiens, UniProt P01889, A65T/A93T/A95T/D138N/D201E/D98Y/E176V/E204Q/E69K/K202T/N87E/Q56L/Q94N/R180L/S48T/Y33H/Y91S); assay: biochemical; type: binding
# HLA-B*4402 = HLA-B*4402 (Homo sapiens, UniProt P01889, A223V/A65T/A93T/A95T/D201E/D98Y/E176V/E187L/E204Q/E69K/G107R/H137Y/K202T/L105A/L119I/N104T/N87E/Q56L/Q94N/R106L/R155S/R180D/S101N/S121R/S35A/S48T/T118I/V36M/W191S/Y140D/Y91S); assay: biochemical; type: binding
# HLA-B*4403 = HLA-B*4403 (Homo sapiens, UniProt P01889, A223V/A65T/A93T/A95T/D201E/D98Y/E176V/E187L/E204Q/E69K/G107R/H137Y/K202T/L105A/L119I/N104T/N87E/Q56L/Q94N/R106L/R155S/R180L/S101N/S121R/S35A/S48T/T118I/V36M/W191S/Y140D/Y91S); assay: biochemical; type: binding
# HLA-B*4501 = HLA-B*4501 (Homo sapiens, UniProt P01889, A329T/A65T/A93T/A95T/C349S/D138N/D201E/D98Y/E176V/E187L/E204Q/E69K/H137Y/K202T/L119W/N87E/Q56L/Q94N/R155S/R180D/S121R/S35A/S48T/V127L/V306I/V36M/W191S/Y140L/Y33H/Y91S); assay: biochemical; type: binding
# HLA-A*0101 = HLA-A*0101 (Homo sapiens, UniProt P04439, A114D/A174V/A182V/D101N/D185E/E176A/E190D/L180R/Q94H/R68K/S129P/T187R/V100A/V91M/W191G); assay: biochemical; type: binding
# HLA-A*3002 = HLA-A*3002 (Homo sapiens, UniProt P04439, D101N/D140H/D185E/E176R/F33S/G80R/H175R/K168Q/Q94H/R138E/R41S/V100E); assay: biochemical; type: binding
# HLA-B*4001 = HLA-B*4001 (Homo sapiens, UniProt P01889, A65T/A93T/A95T/D138N/D98Y/E176V/E69K/N87E/Q56L/Q94N/R180L/S121R/S35A/S48T/T167S/V36M/W171L/Y33H/Y91S); assay: biochemical; type: binding
# HLA-A*2902 = HLA-A*2902 (Homo sapiens, UniProt P04439, A270S/D101N/D185E/E176V/E277Q/E87Q/F33T/G231S/H175R/I121M/I218V/I322F/K168Q/L300P/L318F/M331R/P208A/P217A/Q86L/T323A/T345S/V100A/V358M); assay: MHC molecular binding / Capture assay, IC50: A*2902
# [1] = Binding affinity to A*0101 (expressed as an IC50)
# [2] = read-out: Binding affinity to A*0101 (expressed as an IC50)
# [3] = Binding affinity to A*2902 (expressed as an IC50)
compound,measurement,setting,value
SEAPKYAIL,IC50,HLA-B*1801; B*1801,2260 nM
same,IC50,HLA-B*4002; B*4002,7.8 nM
same,IC50,HLA-B*4402; B*4402,762 nM
same,IC50,HLA-B*4403; B*4403,2260 nM
same,IC50,HLA-B*4501; B*4501,479 nM
ETRHYCYSLY,IC50,HLA-A*0101; [1],43 nM
same,IC50,HLA-A*3002,10 nM
ATDNYYIVTY,IC50,HLA-A*0101; [1],7.4 nM and 19 nM
same,IC50,HLA-A*3002,65 nM
AENLWVTTY,IC50,HLA-B*1801,28 nM
same,IC50,HLA-B*4001,280 nM
same,IC50,HLA-B*4002,191 nM
same,IC50,HLA-B*4402,37 nM
same,IC50,HLA-B*4403,26 nM
same,IC50,HLA-B*4501,48 nM
DLWYYHTQGYY,IC50,HLA-A*0101; [2],5880 nM
YSDISEYRHY,IC50,HLA-A*0101; [1],3.8 nM
same,IC50,HLA-A*2902,1350 nM
LSGPGPGAIFY,IC50,HLA-A*0101; [2],25 nM
YSDVSEFRWY,IC50,HLA-A*0101; [1],3.9 nM
same,IC50,HLA-A*2902,1840 nM
AENLNVTVY,IC50,HLA-B*1801,198 nM
same,IC50,HLA-B*4001,564 nM
same,IC50,HLA-B*4002,3540 nM
same,IC50,HLA-B*4402,447 nM
same,IC50,HLA-B*4403,358 nM
same,IC50,HLA-B*4501,2440 nM
KEKGGLDGLI,IC50,HLA-B*1801; B*1801,> 22800 nM
same,IC50,HLA-B*4002; B*4002,233 nM
same,IC50,HLA-B*4402; B*4402,14700 nM
same,IC50,HLA-B*4403; B*4403,3630 nM
same,IC50,HLA-B*4501; B*4501,9990 nM
DENLWVTVY,IC50,HLA-B*1801,26 nM
same,IC50,HLA-B*4001,> 72700 nM
same,IC50,HLA-B*4002,41100 nM
same,IC50,HLA-B*4402,4590 nM
same,IC50,HLA-B*4403,988 nM
same,IC50,HLA-B*4501; read-out: B*4501,49000 nM
AEIPKLAYF,IC50,HLA-B*1801; B*1801,1640 nM
same,IC50,HLA-B*4001; B*4001,57 nM
same,IC50,HLA-B*4002; B*4002,5.6 nM
same,IC50,HLA-B*4402; B*4402,229 nM
same,IC50,HLA-B*4403; B*4403,57 nM
same,IC50,HLA-B*4501; B*4501,608 nM
KTYGPGPGLY,IC50,HLA-A*0101; [1],5.7 nM
same,IC50,HLA-A*3002; Binding affinity to A*3002 (expressed as an IC50),0.96 nM
EEKPRTLHDL,IC50,HLA-B*1801; B*1801,> 81600 nM
same,IC50,HLA-B*4001; B*4001,36200 nM
same,IC50,HLA-B*4002; B*4002,34000 nM
same,IC50,HLA-B*4402; B*4402,15200 nM
same,IC50,HLA-B*4403; B*4403,30000 nM
same,IC50,HLA-B*4501; B*4501,419 nM
ISEYRHYQY,IC50,HLA-A*0101; [1],40 nM
LEASISGKY,IC50,HLA-A*0101; [1],57800 nM
same,IC50,HLA-A*3002,87 nM
ISDYRHYNY,IC50,HLA-A*0101; [1],16 nM and 28 nM
same,IC50,HLA-A*2902,45 nM
WVYHTQGYY,IC50,HLA-A*0101; [1],703 nM
same,IC50,HLA-A*3002,5.6 nM
AENKWVTVY,IC50,HLA-B*1801,781 nM
same,IC50,HLA-B*4001,11300 nM
same,IC50,HLA-B*4002,534 nM
same,IC50,HLA-B*4402,294 nM
same,IC50,HLA-B*4403,540 nM
same,IC50,HLA-B*4501,297 nM
CC(C)C[C@H](NC(=O)[C@H](C)N)C(=O)N[C@@H](Cc1ccccc1)C(=O)N[C@@H](CCC(N)=O)C(=O)N[C@@H](CCC(=O)O)C(=O)N[C@@H](Cc1ccc(O)cc1)C(=O)N[C@@H](CCC(N)=O)C(=O)N[C@@H](CS)C(=O)N[C@@H](Cc1ccc(O)cc1)C(=O)O,IC50,HLA-A*0101; [1],> 42000 nM
CC[C@H](C)[C@H](NC(=O)[C@@H](NC(=O)[C@H](CC(C)C)NC(=O)[C@H](CC(=O)O)NC(=O)[C@@H](NC(=O)[C@@H](N)Cc1ccccc1)[C@@H](C)O)[C@@H](C)O)C(=O)N[C@H](C(=O)N[C@@H](Cc1ccc(O)cc1)C(=O)O)C(C)C,IC50,HLA-A*0101; [1],16 nM and 34 nM
same,IC50,HLA-A*3002,39000 nM
AADAAAAKY,IC50,HLA-A*0101; [1],20 nM
GELSYLNV,IC50,HLA-B*1801; B*1801,> 24800 nM
same,IC50,HLA-B*4002; B*4002,100 nM
same,IC50,HLA-B*4402; B*4402,19000 nM
same,IC50,HLA-B*4403; B*4403,23700 nM
same,IC50,HLA-B*4501; B*4501,784 nM
AENLWVTVC,IC50,HLA-B*1801,178000 nM
same,IC50,HLA-B*4002,1420 nM
same,IC50,HLA-B*4402,5590 nM
same,IC50,HLA-B*4403,2270 nM
same,IC50,HLA-B*4501,146 nM
LIENELMNY,IC50,HLA-A*0101; [1],412 nM
same,IC50,HLA-A*2902; [3],3940 nM
FENLWVTVY,IC50,HLA-B*1801,59 nM
same,IC50,HLA-B*4001,943 nM
same,IC50,HLA-B*4002,1340 nM
same,IC50,HLA-B*4402,4180 nM
same,IC50,HLA-B*4403,1310 nM
same,IC50,HLA-B*4501,21400 nM
AEMGKFKFSY,IC50,HLA-B*1801; B*1801,1520 nM
same,IC50,HLA-B*4002; B*4002,622 nM
same,IC50,HLA-B*4402; B*4402,146 nM
same,IC50,HLA-B*4403; B*4403,28 nM
same,IC50,HLA-B*4501; B*4501,283 nM
AENLWVTVE,IC50,HLA-B*1801,> 258000 nM
same,IC50,HLA-B*4001,3890 nM
same,IC50,HLA-B*4002,1360 nM
same,IC50,HLA-B*4402,8910 nM
same,IC50,HLA-B*4403,2570 nM
same,IC50,HLA-B*4501,246 nM
AETLWVTVY,IC50,HLA-B*1801,199 nM
same,IC50,HLA-B*4002,198 nM
same,IC50,HLA-B*4402,501 nM
same,IC50,HLA-B*4403,221 nM
same,IC50,HLA-B*4501,774 nM
LSLDGPGPGY,IC50,HLA-A*0101; [1],266 nM
same,IC50,HLA-A*2902; [3],274 nM

# Reference: patent US20060079453A1, “Hla binding peptides and their uses” (priority 2002, published 2006)
